Assay results taken from the supplement of paper PMC10307832.

Columns and labels:
Test in all cases: relative viability (nuclei count vs DMSO), 5 days (fraction); higher = more cells survive
A-427 = system: A-427
Procedure, shortened: (§1)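 Medians of duplicate plates are given as relative viability. That measure is the nuclei count in treated wells divided by the count in vehicle wells. Counts were taken on 4× images of lung cancer cell lines in 1536-well plates, 5 days after pin-tool dosing the day after seeding with one drug alone or a fixed anchor-drug dose plus five library-drug doses (not always all listed) in √10 steps.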

COR-L 105 = system: COR-L 105
Procedure, shortened: as §1

ChaGo-K-1 = system: ChaGo-K-1
Procedure, shortened: as §1

EKVX = system: EKVX
Procedure, shortened: as §1

EMC-BAC-2 = system: EMC-BAC-2
Procedure, shortened: as §1

H3255 = system: H3255
Procedure, shortened: as §1

HCC-366 = system: HCC-366
Procedure, shortened: as §1

LK-2 = system: LK-2
Procedure, shortened: as §1

LOU-NH91 = system: LOU-NH91
Procedure, shortened: as §1

NCI-H1563 = system: NCI-H1563
Procedure, shortened: as §1

NCI-H1666 = system: NCI-H1666
Procedure, shortened: as §1

NCI-H1734 = system: NCI-H1734
Procedure, shortened: as §1

NCI-H1755 = system: NCI-H1755
Procedure, shortened: as §1

NCI-H1792 = system: NCI-H1792
Procedure, shortened: as §1

NCI-H1975 = system: NCI-H1975
Procedure, shortened: as §1

NCI-H2170 = system: NCI-H2170
Procedure, shortened: as §1

NCI-H23 = system: NCI-H23
Procedure, shortened: as §1

NCI-H441 = system: NCI-H441
Procedure, shortened: as §1

NCI-H520 = system: NCI-H520
Procedure, shortened: as §1

NCI-H596 = system: NCI-H596
Procedure, shortened: as §1

PC-3 [JPC-3] = system: PC-3 [JPC-3]
Procedure, shortened: as §1

SK-MES-1 = system: SK-MES-1
Procedure, shortened: as §1

SW 900 = system: SW 900
Procedure, shortened: as §1

## O=C(O)c1ccc(-c2c[nH]c3ncc(-c4ccccc4)cc23)cc1C1CCCC1 + Cc1nc(Nc2ncc(C(=O)Nc3c(C)cccc3Cl)s2)cc(N2CCN(CCO)CC2)n1 [Dasatinib] (partner 0.075 µM)
A-427; first compound 0.04 µM
  relative viability: 0.672
A-427; first compound 0.1265 µM
  relative viability: 0.749
A-427; first compound 0.4 µM
  relative viability: 0.64
A-427; first compound 1.265 µM
  relative viability: 0.595
COR-L 105; first compound 0.04 µM
  relative viability: 0.318
COR-L 105; first compound 0.1265 µM
  relative viability: 0.376
COR-L 105; first compound 0.4 µM
  relative viability: 0.383
COR-L 105; first compound 1.265 µM
  relative viability: 0.391
ChaGo-K-1; first compound 0.04 µM
  relative viability: 0.602
ChaGo-K-1; first compound 0.1265 µM
  relative viability: 0.632
ChaGo-K-1; first compound 0.4 µM
  relative viability: 0.518
ChaGo-K-1; first compound 1.265 µM
  relative viability: 0.604
EKVX; first compound 0.04 µM
  relative viability: 0.547
EKVX; first compound 0.1265 µM
  relative viability: 0.512
EKVX; first compound 0.4 µM
  relative viability: 0.564
EKVX; first compound 1.265 µM
  relative viability: 0.675
EMC-BAC-2; first compound 0.04 µM
  relative viability: 0.285
EMC-BAC-2; first compound 0.1265 µM
  relative viability: 0.31
EMC-BAC-2; first compound 0.4 µM
  relative viability: 0.323
EMC-BAC-2; first compound 1.265 µM
  relative viability: 0.294
H3255; first compound 0.04 µM
  relative viability: 0.378
H3255; first compound 0.1265 µM
  relative viability: 0.6
H3255; first compound 0.4 µM
  relative viability: 0.348
H3255; first compound 1.265 µM
  relative viability: 0.473
HCC-366; first compound 0.04 µM
  relative viability: 0.583
HCC-366; first compound 0.1265 µM
  relative viability: 0.786
HCC-366; first compound 0.4 µM
  relative viability: 0.689
HCC-366; first compound 1.265 µM
  relative viability: 0.669
LK-2; first compound 0.04 µM
  relative viability: 0.362
LK-2; first compound 0.1265 µM
  relative viability: 0.282
LK-2; first compound 0.4 µM
  relative viability: 0.252
LK-2; first compound 1.265 µM
  relative viability: 0.274
LOU-NH91; first compound 0.04 µM
  relative viability: 0.573
LOU-NH91; first compound 0.1265 µM
  relative viability: 0.667
LOU-NH91; first compound 0.4 µM
  relative viability: 0.508
LOU-NH91; first compound 1.265 µM
  relative viability: 0.577
NCI-H1563; first compound 0.04 µM
  relative viability: 0.455
NCI-H1563; first compound 0.1265 µM
  relative viability: 0.514
NCI-H1563; first compound 0.4 µM
  relative viability: 0.48
NCI-H1563; first compound 1.265 µM
  relative viability: 0.48
NCI-H1666; first compound 0.04 µM
  relative viability: 0.858
NCI-H1666; first compound 0.1265 µM
  relative viability: 0.928
NCI-H1666; first compound 0.4 µM
  relative viability: 0.832
NCI-H1666; first compound 1.265 µM
  relative viability: 0.501
NCI-H1734; first compound 0.04 µM
  relative viability: 0.502
NCI-H1734; first compound 0.1265 µM
  relative viability: 0.437
NCI-H1734; first compound 0.4 µM
  relative viability: 0.468
NCI-H1734; first compound 1.265 µM
  relative viability: 0.409
NCI-H1755; first compound 0.04 µM
  relative viability: 0.394
NCI-H1755; first compound 0.1265 µM
  relative viability: 0.541
NCI-H1755; first compound 0.4 µM
  relative viability: 0.423
NCI-H1755; first compound 1.265 µM
  relative viability: 0.436
NCI-H1792; first compound 0.1265 µM
  relative viability: 0.8
NCI-H1792; first compound 0.4 µM
  relative viability: 0.856
NCI-H1792; first compound 1.265 µM
  relative viability: 0.847
NCI-H1975; first compound 0.04 µM
  relative viability: 0.446
NCI-H1975; first compound 0.1265 µM
  relative viability: 0.356
NCI-H1975; first compound 0.4 µM
  relative viability: 0.408
NCI-H1975; first compound 1.265 µM
  relative viability: 0.376
NCI-H2170; first compound 0.04 µM
  relative viability: 0.522
NCI-H2170; first compound 0.1265 µM
  relative viability: 0.623
NCI-H2170; first compound 0.4 µM
  relative viability: 0.529
NCI-H2170; first compound 1.265 µM
  relative viability: 0.564
NCI-H23; first compound 0.04 µM
  relative viability: 0.82
NCI-H23; first compound 0.1265 µM
  relative viability: 1.04
NCI-H23; first compound 0.4 µM
  relative viability: 0.729
NCI-H23; first compound 1.265 µM
  relative viability: 0.717
NCI-H441; first compound 0.04 µM
  relative viability: 0.737
NCI-H441; first compound 0.1265 µM
  relative viability: 0.521
NCI-H441; first compound 0.4 µM
  relative viability: 0.575
NCI-H441; first compound 1.265 µM
  relative viability: 0.473
NCI-H520; first compound 0.04 µM
  relative viability: 0.199
NCI-H520; first compound 0.1265 µM
  relative viability: 0.203
NCI-H520; first compound 0.4 µM
  relative viability: 0.253
NCI-H520; first compound 1.265 µM
  relative viability: 0.222
NCI-H596; first compound 0.04 µM
  relative viability: 0.596
NCI-H596; first compound 0.1265 µM
  relative viability: 0.572
NCI-H596; first compound 0.4 µM
  relative viability: 0.601
NCI-H596; first compound 1.265 µM
  relative viability: 0.639
PC-3 [JPC-3]; first compound 0.04 µM
  relative viability: 0.981
PC-3 [JPC-3]; first compound 0.1265 µM
  relative viability: 1.09
PC-3 [JPC-3]; first compound 0.4 µM
  relative viability: 1.07
PC-3 [JPC-3]; first compound 1.265 µM
  relative viability: 0.973
SK-MES-1; first compound 0.04 µM
  relative viability: 0.406
SK-MES-1; first compound 0.1265 µM
  relative viability: 0.384
SK-MES-1; first compound 0.4 µM
  relative viability: 0.387
SK-MES-1; first compound 1.265 µM
  relative viability: 0.4
SW 900; first compound 0.04 µM
  relative viability: 0.577
SW 900; first compound 0.1265 µM
  relative viability: 0.712
SW 900; first compound 0.4 µM
  relative viability: 0.584
SW 900; first compound 1.265 µM
  relative viability: 0.52
